The source of these data is ChEMBL document CHEMBL5236548, “Marine Natural Products: A Potential Source of Anti-hepatocellular Carcinoma Drugs” (J Med Chem, 2021).

Assay [1] has as its system HepG2. Description: Cytotoxicity against human HepG2 cells incubated for 48 hrs by MTT assay. The class given is functional, cell-based. Particulars: HepG2, 48 h.
Assay [2] deals with HepG2. Description: Cytotoxicity against human HepG2 cells measured after 3 days by MTT assay. The class given is functional, cell-based. The conditions noted are these: HepG2, 72 h.
In assay [3] the test system is HepG2. Kind of assay: Antiproliferative activity against human HepG2 cells incubated for 72 hrs by MTT assay. Format: functional, cell-based. Particulars: HepG2, 72 h.
The subject of assay [4] is HepG2. Kind of assay: Cytotoxicity against human HepG2 cells by MTT assay. The class given is functional, cell-based.
A further assay concerns SK-HEP1. Kind of assay: Antiproliferative activity against human SK-HEP1 cells assessed as cell growth inhibition by SRB method. The class given is functional.
The subject of assay [5] is HepG2. Description: Antiproliferative activity against human HepG2 cells assessed as cell growth inhibition by SRB method. Format: functional.
The test system of the next assay is Bel-7402. Kind of assay: Cytotoxicity against human 7402 hepatoma cells incubated for 24 hrs by MTT assay. Format: functional, cell-based. The conditions noted are these: Bel-7402, 24 h.
The next assay has as its system MDA-MB-435. Kind of assay: Cytotoxicity against human MDA-MB-435 cells incubated for 24 hrs by MTT assay. Format: functional, cell-based. The conditions noted are these: MDA-MB-435, 24 h.
Assay [6] has as its system HepG2. Kind of assay: Antiproliferative activity against human HepG2 cells incubated for 72 hrs. Format: functional, cell-based. Particulars: HepG2, 72 h.

`C#CCNC1=CC(=O)c2c(O)c3c(c(O)c2C1=O)C[C@](C)(O)[C@H](O)C3` registered an IC50 with HepG2 [1] of 10.1 µM.

`CCCCSC1=C(SCCCC)C(=O)c2c(O)c3c(c(O)c2C1=O)C[C@@H](O)[C@@](C)(O)C3` displayed an IC50 with HepG2 [1] of 5.04 µM.

Regarding `C[C@]1(O)Cc2c(O)c3c(c(O)c2C[C@H]1O)C(=O)C=C(NCc1ccc(F)cc1)C3=O`, in the assay on HepG2 [1], it took 11.2 µM to reach half-maximal inhibition (IC50).

With `C=C(CC[C@@H](C)[C@H]1[C@@H](O)C[C@H]2[C@@H]3CC=C4C[C@@H](O)CC[C@]4(C)[C@H]3[C@H](O)C[C@]12C)C(C)C`, inhibition in the assay with HepG2 [2] was half-maximal at 14.9 µM (IC50).

As to `COc1ccc2[nH]c([C@@H]3C4C5CCC([C@H](C)CCCC(C)C)[C@@]5(C)CCC4[C@@]4(C)CC[C@H](O)C[C@@]34O)nc2c1` (stereo partly specified), the IC50 in the assay with HepG2 [3] was 8.4 µM.

The compound `C/C=C(\N=C=S)C(=O)O[C@H]1[C@@H](OC(C)=O)[C@@H](O)[C@H]([C@@]2(O)CC(=O)C(N)=C(C(=O)O)C2=O)O[C@@H]1C` had an IC50 in the assay on HepG2 [4] of 4.3 µM.

For `COC1=CC[C@@H]([C@@H](C)/C=C(C)/C=C\C=C/C(=O)N[C@H](C(=O)N/C=C\C[C@H](C/C=C(\C)Cl)OC(N)=O)C(C)(C)C)OC1=O`, the GI50 in the assay on SK-HEP1 amounted to 0.000278 µM; in the assay with HepG2 [5] it was 0.000752 µM.

In the assay with HepG2 [1], `COC1=CC(=O)c2c(O)c3c(c(O)c2C1=O)C[C@]1(C)OCO[C@@H]1C3` returned an IC50 of 12.8 µM.

Regarding `CC(=O)O[C@H]1CC[C@]2(C)C3CC[C@@]4(C)C(CCC4[C@H](C)CCCC(C)C)C3[C@@H](c3nc4ccccc4[nH]3)[C@]2(O)C1` (stereo partly specified), the IC50 in the assay with HepG2 [3] came out at 4.2 µM.

With `Cc1cc2nc([C@@H]3C4C5CCC([C@H](C)CCCC(C)C)[C@@]5(C)CCC4[C@@]4(C)CC[C@H](O)C[C@@]34O)[nH]c2cc1C` (stereo partly specified), in the assay with HepG2 [3], the IC50 worked out at 4.5 µM.

`C[C@]1(O)Cc2c(O)c3c(c(O)c2C[C@H]1O)C(=O)C1=C(SCCS1)C3=O` showed an IC50 in the assay on HepG2 [1] of 1.98 µM.

Consider `COC(=O)N[C@H]1[C@@H](C)O[C@@H](O[C@H]2C/C=C(\C)[C@@H]3C=C[C@@H]4[C@@H](O[C@H]5C[C@@H](O[C@H]6C[C@@H](O)[C@@H](O[C@@H]7C[C@@H](O)[C@@H](OC)[C@H](C)O7)[C@H](C)O6)[C@@H](O)[C@H](C)O5)[C@H](C)C[C@H](C)[C@H]4[C@]3(C)/C(O)=C3\C(=O)O[C@]4(C[C@@H](C)C(CO)=C[C@H]4/C=C/2C)C3=O)C[C@]1(C)[N+](=O)[O-]`, for which the IC50 with Bel-7402 was 0.506 µM; in the assay on MDA-MB-435, 52.1 µM.

Compound `CC[C@H]1C=CCC[C@@]2(C[C@@H]3CC[C@]4(O)[C@H](C(=O)OCCCCCCCCCCCCCCCCC(=O)N(CCCN)C[C@@H](O)CCN)[C@]5(CCC[C@@H](C)O5)NC(=N2)N34)O1` registered an IC50 in the assay on HepG2 [6] of 2.11 µM.

In turn, `CC[C@H]1C=CCC[C@@]2(C[C@@H]3CCC4[C@H](C(=O)OCCCCCCCCCCCCCCCC(=O)N(CCCN)C[C@@H](O)CCN)[C@]5(CCC[C@@H](C)O5)NC(=N2)N43)O1` (stereo partly specified) displayed an IC50 in the assay on HepG2 [6] of 2.66 µM.

In turn, `CCC(C)SC1=C(SC)C(=O)c2c(O)c3c(c(O)c2C1=O)C[C@](C)(O)[C@H](O)C3` (stereo partly specified) registered an IC50 in the assay on HepG2 [1] of 2.39 µM.

Take `COc1cccc2c1C(=O)c1c(O)c3c(c(O)c1C2=O)C[C@@](O)(C(=O)CO)C[C@@H]3O[C@H]1C[C@H](N)[C@@H](O)[C@H](C)O1` [EPIRUBICIN]: 0.96 µM corresponded to half-maximal inhibition with HepG2 [1] (IC50).

With `C/C=C\C[C@@H](C/C=C\NC(=O)[C@@H](NC(=O)\C=C/C=C\C(C)=C\[C@H](C)[C@@H]1CC=C(OC)C(=O)O1)C(C)(C)C)OC(N)=O` [PLOCABULIN], the GI50 with SK-HEP1 is 0.000179 µM; with HepG2 [5], 0.00276 µM.

On to `CC[C@]1(O)C[C@@H]2CN(CCc3c([nH]c4ccccc34)[C@@](C(=O)OC)(c3cc4c(cc3OC)N(C)[C@H]3[C@@](O)(C(=O)OC)[C@H](OC(C)=O)[C@]5(CC)C=CCN6CC[C@]43[C@@H]65)C2)C1` [VINBLASTINE], for which the GI50 in the assay with SK-HEP1 is 0.0378 µM.
